# Results: patent publication US9233921B2, “Potent poxvirus inhibitor” (priority 2013, dated 2016)
# Like-named read-outs stand apart in the source and are kept apart here.
# Key:
# vaccinia virus = experiment: microbe, parasite or virus in culture; type: cell-based, Vaccinia virus (WR strain)
# Cytotoxicity (CC50) = details: African green monkey, BSC-1 cells
# [1] = Orthopoxvirus vaccinia, BSC-1, read-out: IC50 (antiviral)
Compound,IC50 (antiviral) (vaccinia virus),CC50 (Cytotoxicity (CC50)) [µM],IC50 (vaccinia virus; [1]) [µM],also measured
"3-((3,5-Dichlorophenyl)thio)-6-methyl-1H-indole-2-carboxylate [Compound 27]",loss of activity,–,–,–
"Cc1ccc2c(Sc3ccc(Cl)cc3)c(C(=O)O)[nH]c2c1 [Compound 1, 3-((4-Chlorophenyl)thio)-6-methyl-1H-indole-2-carboxylic acid]",–,192,82,IC50 (vaccinia virus; Orthopoxvirus vaccinia): 82 µM
"Cc1cccc2[nH]c(C(=O)O)c(Sc3ccc(Cl)cc3)c12 [Compound 1a, 3-((4-Chlorophenyl)thio)-4-methyl-1H-indole-2-carboxylic acid]",–,–,46 to 86,IC50 (vaccinia virus; read-out: IC50 (antiviral)): 86 µM
"Cc1ccc2[nH]c(C(=O)O)c(Sc3ccc(Cl)cc3)c2c1 [Compound 1b, 3-((4-Chlorophenyl)thio)-5-methyl-1H-indole-2-carboxylic acid]",–,136,46 to 86,IC50 (vaccinia virus; read-out: IC50 (antiviral)): 46 µM
"Cc1cccc2c(Sc3ccc(Cl)cc3)c(C(=O)O)[nH]c12 [Compound 1c, 3-((4-Chlorophenyl)thio)-7-methyl-1H-indole-2-carboxylic acid]",–,–,46 to 86,IC50 (vaccinia virus; read-out: IC50 (antiviral)): 74 µM
"O=C(O)c1[nH]c2ccccc2c1Sc1ccc(Cl)cc1 [Compound 1d, 3-(4-Chlorophenylthio)-1H-indole-2-carboxylic acid]",loss of activity,–,–,–
"O=C(O)c1[nH]c2cc(Cl)ccc2c1Sc1ccc(Cl)cc1 [Compound 1e, 6-Chloro-3-((4-chlorophenyl)thio)-1H-indole-2-carboxylic acid]",–,138,40 to 51,IC50 (vaccinia virus; read-out: IC50 (antiviral)): 47 µM
"O=C(O)c1[nH]c2cc(Br)ccc2c1Sc1ccc(Cl)cc1 [Compound 1f, 6-Bromo-3-((4-chlorophenyl)thio)-1H-indole-2-carboxylic acid]",–,90,40 to 51,IC50 (vaccinia virus; read-out: IC50 (antiviral)): 51 µM
"O=C(O)c1[nH]c2cc(F)ccc2c1Sc1ccc(Cl)cc1 [Compound 1g, 6-Fluoro-3-((4-chlorophenyl)thio)-1H-indole-2-carboxylic acid]",–,–,40 to 51,IC50 (vaccinia virus; read-out: IC50 (antiviral)): 40 µM
"CCc1ccc2c(Sc3ccc(Cl)cc3)c(C(=O)O)[nH]c2c1 [Compound 1h, 3-((4-Chlorophenyl)thio)-6-ethyl-1H-indole-2-carboxylic acid]",–,–,36,–
"COc1cccc2[nH]c(C(=O)O)c(Sc3ccc(Cl)cc3)c12 [Compound 1i, 3-((4-Chlorophenyl)thio)-4-methoxy-1H-indole-2-carboxylic acid]",loss of activity,–,–,–
"Cc1ccc(C)c2c(Sc3ccc(Cl)cc3)c(C(=O)O)[nH]c12 [Compound 1j, 3-((4-chlorophenyl)thio)-4,7-dimethyl-1H-indole-2-carboxylic acid]",–,109,50,–
"Cc1ccc2c(c1)c(Sc1ccc(Cl)cc1)c(C(=O)O)n2C [Compound 2, 3-((4-Chlorophenyl)thio)-1,5-dimethyl-1H-indole-2-carboxylic acid]",–,–,135,–
"CCn1c(C(=O)O)c(Sc2ccc(Cl)cc2)c2cc(C)ccc21 [Compound 3, 3-((4-Chlorophenyl)thio)-1-ethyl-5-methyl-1H-indole-2-carboxylic acid]",–,–,86,fold improvement in activity over the corresponding R1 methyl analogs 2 and 4 (vaccinia virus): 1.5 fold
"COC(=O)c1c(Sc2ccc(Cl)cc2)c2cc(C)ccc2n1C [Compound 4, Methyl 3-((4-chlorophenyl)thio)-1,5-dimethyl-1H-indole-2-carboxylate]",–,–,163,–
"CCn1c(C(=O)OC)c(Sc2ccc(Cl)cc2)c2cc(C)ccc21 [Compound 5, Methyl 3-((4-chlorophenyl)thio)-1-ethyl-5-methyl-1H-indole-2-carboxylate]",–,–,39,fold improvement in activity of 5 over 3 (vaccinia virus): 2 fold; fold improvement in activity over the corresponding R1 methyl analogs 2 and 4 (vaccinia virus): 4 fold
"COC(=O)c1[nH]c2cc(C)ccc2c1Sc1ccc(Cl)cc1 [Compound 6, Methyl 3-((4-chlorophenyl)thio)-6-methyl-1H-indole-2-carboxylate]",–,61,19,–
"COC(=O)c1[nH]c2c(C)cccc2c1Sc1ccc(Cl)cc1 [Compound 8, Methyl 3-((4-chlorophenyl)thio)-7-methyl-1H-indole-2-carboxylate]",–,32,23,–
"COC(=O)c1[nH]c2cccc(C)c2c1Sc1ccc(Cl)cc1 [Compound 9, Methyl 3-((4-chlorophenyl)thio)-4-methyl-1H-indole-2-carboxylate]",–,–,21,–
"Cc1ccc2c(Sc3ccccc3)c(C(=O)O)[nH]c2c1 [Compound 18, 6-Methyl-3-(phenylthio)-1H-indole-2-carboxylic acid]",abolished its antiviral activity,–,–,–
"Cc1ccc2c(Sc3cccc(Cl)c3)c(C(=O)O)[nH]c2c1 [Compound 18a, 3-((3-Chlorophenyl)thio)-6-methyl-1H-indole-2-carboxylic acid]",–,–,51,–

Compound,IC50 (antiviral) (vaccinia virus),CC50 (Cytotoxicity (CC50)) [µM],IC50 (vaccinia virus; [1]) [µM],also measured
"Cc1ccc2c(Sc3cccc(F)c3)c(C(=O)O)[nH]c2c1 [Compound 18b, 3-((3-Fluorophenyl)thio)-6-methyl-1H-indole-2-carboxylic acid]",–,–,56,IC50 (vaccinia virus; read-out: IC50 (antiviral)): 69 µM
"Cc1ccc2c(Sc3ccc(Br)cc3)c(C(=O)O)[nH]c2c1 [Compound 18c, 3-((4-Bromophenyl)thio)-6-methyl-1H-indole-2-carboxylic acid]",loss of activity,133,–,–
"Cc1ccc(Sc2c(C(=O)O)[nH]c3cc(C)ccc23)cc1 [Compound 18d, 6-Methyl-3-(p-tolylthio)-1H-indole-2-carboxylic acid]",failed to show antiviral activities,–,–,–
"COc1ccc(Sc2c(C(=O)O)[nH]c3cc(C)ccc23)cc1 [Compound 18e, 3-((4-Methoxyphenyl)thio)-6-methyl-1H-indole-2-carboxylic acid]",failed to show antiviral activities,–,–,–
"Cc1ccc2c(Sc3ccc(C(=O)O)cc3)c(C(=O)O)[nH]c2c1 [Compound 18f, 3-((4-Carboxyphenyl)thio)-6-methyl-1H-indole-2-carboxylic acid]",loss of activity,–,–,–
"Cc1ccc2c(Sc3ccc(C(F)(F)F)cc3)c(C(=O)O)[nH]c2c1 [Compound 18g, 6-Methyl-3-((4-(trifluoromethyl)phenyl)thio)-1H-indole-2-carboxylic acid]",–,137,33,–
"COc1ccc(Sc2c(C(=O)O)[nH]c3cccc(C)c23)cc1 [Compound 19, 3-((4-Methoxyphenyl)thio)-4-methyl-1H-indole-2-carboxylic acid]",failed to show antiviral activities,–,–,–
"Cc1ccc(Sc2c(C(=O)O)[nH]c3cccc(C)c23)cc1 [Compound 19a, 4-Methyl-3-(p-tolylthio)-1H-indole-2-carboxylic acid]",failed to show antiviral activities,–,–,–
"COC(=O)c1ccc(Sc2c(C(=O)O)[nH]c3cccc(C)c23)cc1 [Compound 19b, 3-((4-(Methoxycarbonyl)phenyl)thio)-4-methyl-1H-indole-2-carboxylic acid]",failed to show antiviral activities,–,–,–
"Cc1cccc2[nH]c(C(=O)O)c(Sc3ccc([N+](=O)[O-])cc3)c12 [Compound 19c, 4-Methyl-3-((4-nitrophenyl)thio)-1H-indole-2-carboxylic acid]",loss of activity,–,–,–
"Cc1ccc2c(Sc3ccc(Cl)cc3Cl)c(C(=O)O)[nH]c2c1 [Compound 20, 3-((2,4-Dichlorophenyl)thio)-6-methyl-1H-indole-2-carboxylic acid]",–,129,–,fold activity improvement over the parent 1 (vaccinia virus): 2-11 fold
"Cc1ccc2c(Sc3ccc(Cl)c(Cl)c3)c(C(=O)O)[nH]c2c1 [Compound 21, 3-((3,4-Dichlorophenyl)thio)-6-methyl-1H-indole-2-carboxylic acid]",–,76,–,fold activity improvement over the parent 1 (vaccinia virus): 2-11 fold
"Cc1cccc2c(Sc3ccc(Cl)c(Cl)c3)c(C(=O)O)[nH]c12 [Compound 22, 3-((3,4-Dichlorophenyl)thio)-7-methyl-1H-indole-2-carboxylic acid]",–,150,–,fold activity improvement over the parent 1 (vaccinia virus): 2-11 fold
"CCc1ccc2c(Sc3ccc(Cl)c(Cl)c3)c(C(=O)O)[nH]c2c1 [Compound 23, 3-((3,4-Dichlorophenyl)thio)-6-ethyl-1H-indole-2-carboxylic acid]",–,–,42,–
"Cc1ccc2c(Sc3cc(Cl)cc(Cl)c3)c(C(=O)O)[nH]c2c1 [Compound 24, 3-((3,5-Dichlorophenyl)thio)-6-methyl-1H-indole-2-carboxylic acid]",–,75,7 to 37,SI (selectivity index = CC50/IC50) (vaccinia virus): 11; fold activity improvement over the parent 1 (vaccinia virus): 2-11 fold; IC50 (vaccinia virus; Orthopoxvirus vaccinia): 7 µM
"CCc1ccc2c(Sc3cc(Cl)cc(Cl)c3)c(C(=O)O)[nH]c2c1 [Compound 25, 3-((3,5-Dichlorophenyl)thio)-6-ethyl-1H-indole-2-carboxylic acid]",–,63,9,–
"O=C(O)c1[nH]c2ccccc2c1Sc1cc(Cl)cc(Cl)c1 [Compound 26, 3-((3,5-Dichlorophenyl)thio)-1H-indole-2-carboxylic acid]",–,133,43,fold decrease in activity compared to 24 (vaccinia virus): ~6 fold
"CNC(=O)c1[nH]c2cc(C)ccc2c1Sc1cc(Cl)cc(Cl)c1 [Compound 28, 3-((3,5-Dichlorophenyl)thio)-N,6-dimethyl-1H-indole-2-carboxamide]",loss of activity,–,–,–
"Cc1ccc2c(Sc3cc(Cl)c(Cl)cc3Cl)c(C(=O)O)[nH]c2c1 [Compound 30, 6-Methyl-3-((2,4,5-trichlorophenyl)thio)-1H-indole-2-carboxylic acid]",–,78,25,–
"Cc1cccc2c(Sc3cc(Cl)c(Cl)cc3Cl)c(C(=O)O)[nH]c12 [Compound 30a, 7-Methyl-3-((2,4,5-trichlorophenyl)thio)-1H-indole-2-carboxylic acid]",–,93,21,–
"Cc1ccc2c(Sc3ccc(C(F)(F)F)cc3[N+](=O)[O-])c(C(=O)O)[nH]c2c1 [Compound 31, 6-Methyl-3-((2-nitro-4-(trifluoromethyl)phenyl)thio)-1H-indole-2-carboxylic acid]",loss of activity,–,–,–
